Source: ChEMBL document CHEMBL1800066 (J Med Chem, 2011)
Converted amounts (≈) assume the structure as drawn.

Columns and labels:
[1] = Antiproliferative activity against human GTL16 cells after 72 hrs; details: GTL 16, 72 h
[2] = molecular target: T1, Hepatocyte growth factor receptor (Homo sapiens, UniProt P08581)
[3] = Plasma clearance in rat at 2 mg/kg, iv and 4 mg/kg, po; assay type: ADME, organism-based
[4] = molecular target: Voltage-gated inwardly rectifying potassium channel KCNH2 (Homo sapiens, UniProt Q12809); assay: Inhibition of Kv11.1 channel
[5] = Inhibition of potassium channel IKr
[6] = Half life in rat at 2 mg/kg, iv and 4 mg/kg, po; assay type: ADME, organism-based; details: in vivo
[7] = Volume of distribution at steady state in rat at 2 mg/kg, iv and 4 mg/kg, po; assay type: ADME, organism-based; details: in vivo, read-out: Vdss
[8] = Oral bioavailability in rat at 4 mg/kg; assay type: ADME, organism-based; details: in vivo
[9] = Volume of distribution at steady state in rat at 2 mg/kg, iv; assay type: ADME, organism-based; set-up: dose 2 mg/kg, route intravenous; details: in vivo, read-out: Vdss
[10] = Half life in rat at 2 mg/kg, iv; assay type: ADME, organism-based; set-up: dose 2 mg/kg, route intravenous; details: in vivo
[11] = Plasma clearance in rat at 2 mg/kg, iv; assay type: ADME, organism-based; set-up: dose 2 mg/kg, route intravenous
[12] = Oral bioavailability in rat at 1 mg/kg; assay type: ADME, organism-based; details: in vivo
Rattus norvegicus = assay: Volume of distribution at steady state in rat at 1 mg/kg, iv and po; assay type: ADME, organism-based; set-up: dose 1 mg/kg, route oral; details: in vivo
[13] = Half life in rat at 1 mg/kg, iv and po; assay type: ADME, organism-based; set-up: dose 1 mg/kg, route oral; details: in vivo
[14] = Half life in rat at 0.31 mg/kg, iv and 0.62 mg/kg, po; assay type: ADME, organism-based; details: in vivo
[15] = Oral bioavailability in rat at 0.62 mg/kg; assay type: ADME, organism-based; details: in vivo
[16] = Volume of distribution at steady state in rat at 0.31 mg/kg, iv and 0.62 mg/kg, po; assay type: ADME, organism-based; details: in vivo, read-out: Vdss
[17] = Plasma clearance in rat at 0.31 mg/kg, iv and 0.62 mg/kg, po; assay type: ADME, organism-based
[18] = molecular target: T1, Hepatocyte growth factor receptor; assay: Inhibition of c-MET overexpressed in human GTL-16 cells assessed as phosphorylation at C-terminal Y1349 after 2 hrs by Western blot analysis; assay type: cell-based
[19] = Lipophilicity, log P of the compound; assay type: physicochemical; details: octanol/water
Cytochrome P450 2C9 = Cytochrome P450 2C9 (Homo sapiens, UniProt P11712); assay: Inhibition of CYP2C9; assay type: ADME
Cytochrome P450 3A4 = Cytochrome P450 3A4 (Homo sapiens, UniProt P08684); assay: Inhibition of CYP3A4; assay type: ADME
Cytochrome P450 2D6 = Cytochrome P450 2D6 (Homo sapiens, UniProt P10635); assay: Inhibition of CYP2D6; assay type: ADME
[20] = Solubility of the compound at pH 7.4; assay type: physicochemical; details: buffer

Structure (SMILES): Cn1cc(-c2cnc3ccc4ccc(NS(=O)(=O)N5CCOCC5)cc4c(=O)c3c2)cn1
- IC50 [1]: 11000 nM

Structure (SMILES): CS(=O)(=O)Nc1ccc2c(=O)c3cc(-c4ccccc4)cnc3ccc2c1
- IC50 [2]: > 10000 nM

Structure (SMILES): Cn1cc(-c2cnc3ccc4ccc(NS(C)(=O)=O)cc4c(=O)c3c2)cn1
- clearance [3]: 40 mL/min/kg
- IC50 [1]: 1900 nM
- IC50 [4]: 10100 nM
- IC50 [5]: 330 nM
- half-life [6]: 0.5 h

Structure (SMILES): CN(C)S(=O)(=O)Nc1ccc2ccc3ncc(-c4cnn(C)c4)cc3c(=O)c2c1
- IC50 [4]: > 30000 nM
- IC50 [5]: > 30000 nM

Structure (SMILES): CCCn1cc(-c2cnc3ccc4ccc(NS(=O)(=O)N(C)C)cc4c(=O)c3c2)cn1
- IC50 [1]: 780 nM

Structure (SMILES): CN(C)S(=O)(=O)Nc1ccc2ccc3ncc(-c4cnn(CC(=O)N5CCOCC5)c4)cc3c(=O)c2c1
- IC50 [1]: 1700 nM

Structure (SMILES): CN(C)CCCn1cc(-c2cnc3ccc4ccc(NS(=O)(=O)N(C)C)cc4c(=O)c3c2)cn1
- IC50 [1]: 1100 nM

Structure (SMILES): CN(C)S(=O)(=O)Nc1ccc2ccc3ncc(-c4cnn(CCCO)c4)cc3c(=O)c2c1
- IC50 [1]: 370 nM

Structure (SMILES): CN(C)S(=O)(=O)Nc1ccc2ccc3ncc(-c4cnn(CCF)c4)cc3c(=O)c2c1
- IC50 [1]: 610 nM

Structure (SMILES): CCN1CCC(n2cc(-c3cnc4ccc5ccc(NS(=O)(=O)N(C)C)cc5c(=O)c4c3)cn2)CC1
- IC50 [1]: 55 nM

Structure (SMILES): CN(C)S(=O)(=O)Nc1ccc2ccc3ncc(-c4cnn(-c5ccccn5)c4)cc3c(=O)c2c1
- IC50 [1]: 1300 nM

Structure (SMILES): Cn1cc(-c2cnc3ccc4ccc(NS(N)(=O)=O)cc4c(=O)c3c2)cn1
- IC50 [1]: 990 nM
- IC50 [4]: 4300 nM

Structure (SMILES): CNS(=O)(=O)Nc1ccc2ccc3ncc(-c4cnn(C)c4)cc3c(=O)c2c1
- clearance [3]: 33.8 mL/min/kg
- IC50 [1]: 750 nM
- Vd [7]: 2.5 L/kg
- bioavailability [8]: 33%
- half-life [6]: 0.9 h

Structure (SMILES): CCN(CC)S(=O)(=O)Nc1ccc2ccc3ncc(-c4cnn(C)c4)cc3c(=O)c2c1
- IC50 [1]: 2200 nM

Structure (SMILES): CN(Cc1cnccn1)S(=O)(=O)Nc1ccc2ccc3ncc(-c4cnn(C)c4)cc3c(=O)c2c1
- Vd [9]: 2.4 L/kg
- half-life [10]: 0.7 h
- clearance [11]: 39 mL/min/kg
- IC50 [1]: 1100 nM
- IC50 [4]: 7100 nM

Structure (SMILES): CN(Cc1ccccc1)S(=O)(=O)Nc1ccc2ccc3ncc(-c4cnn(C)c4)cc3c(=O)c2c1
- IC50 [1]: 50000 nM
- IC50 [4]: > 30000 nM

Structure (SMILES): Cn1cc(-c2cnc3ccc4ccc(NS(=O)(=O)N5CCC5)cc4c(=O)c3c2)cn1
- bioavailability [12]: 29%
- Vdss (Rattus norvegicus): 0.95 L/kg
- IC50 [1]: 1100 nM
- half-life [13]: 3.3 h

Structure (SMILES): Cn1cc(-c2cnc3ccc4ccc(NS(=O)(=O)N5CC(F)C5)cc4c(=O)c3c2)cn1
- Vd [9]: 0.41 L/kg
- half-life [10]: 1.8 h
- clearance [11]: 2.9 mL/min/kg
- IC50 [1]: 2400 nM

Structure (SMILES): COCCCN(C)S(=O)(=O)Nc1ccc2ccc3ncc(-c4cnn(C)c4)cc3c(=O)c2c1
- Vd [9]: 1.1 L/kg
- half-life [10]: 1.3 h
- clearance [11]: 10.7 mL/min/kg
- IC50 [1]: 1500 nM
- IC50 [4]: > 30000 nM

Structure (SMILES): CN([C@H]1CCOC1)S(=O)(=O)Nc1ccc2ccc3ncc(-c4cnn(C)c4)cc3c(=O)c2c1
- half-life [14]: 1.2 h
- bioavailability [15]: 38%
- Vd [16]: 1.1 L/kg
- IC50 [1]: 570 nM
- IC50 [4]: > 30000 nM
- clearance [17]: 11 mL/min/kg

Structure (SMILES): CN(C[C@H]1COCCO1)S(=O)(=O)Nc1ccc2ccc3ncc(-c4cnn(C)c4)cc3c(=O)c2c1
- IC50 [1]: 2800 nM
- IC50 [4]: > 30000 nM
- IC50 [18]: 210 nM
- IC50 [2]: 14 nM

Structure (SMILES): CS(=O)(=O)Nc1ccc2ccc3ncc(-c4ccccc4)cc3c(=O)c2c1
- logP [19]: 3.15
- clearance [3]: 24 mL/min/kg
- IC50 (Cytochrome P450 2C9): > 50000 nM
- IC50 [1]: > 50000 nM
- IC50 [4]: 290 nM
- bioavailability [8]: 2%
- IC50 (Cytochrome P450 3A4): > 50000 nM
- IC50 (Cytochrome P450 2D6): > 50000 nM
- half-life [6]: 0.5 h
- solubility [20]: 0.5 µg/mL (≈ 1.33 µM)

Structure (SMILES): CS(=O)(=O)Nc1ccc2ccc3nccc(Cl)c3c(=O)c2c1
- IC50 [2]: > 10000 nM

Structure (SMILES): CN(C)S(=O)(=O)Nc1ccc2ccc3ncc(-c4cnn(CC(F)CO)c4)cc3c(=O)c2c1 (racemic)
- IC50 [1]: 270 nM

Structure (SMILES): COCC(F)Cn1cc(-c2cnc3ccc4ccc(NS(=O)(=O)N(C)C)cc4c(=O)c3c2)cn1 (racemic)
- IC50 [1]: 54 nM
